Reference: patent US20240182481A1 (Tango Therapeutics, Inc., priority 2021, published 2024)
pIC50: −log10 of the molar value. Like-named read-outs stand apart in the source and are kept apart here.

Columns and labels:
[1] = system: MDA-MB-436 (BRCA1 mutant) cell line; assay: Viability assay in BRCA1 mutant cell line MDA-MB-436; type: cell-based; conditions: Homo sapiens, BRCA1 mutant MDA-MB-436, read-out: MDA-MB-436 rel IC50
Text: (§1) Table 1 also indicates IC50 values in a viability assay for a non-isogenic pair of BRCA1 mutant (column 5—MDA-MB-436) and BRCA1 WT (column 6—HCC1954) cell lines. These values indicate the effect of treatment with compound on cell survival.

[2] = system: HCC1954 (BRCA1 WT) cell line; assay: Viability assay in BRCA1 WT cell line HCC1954; type: cell-based; conditions: Homo sapiens, read-out: HCC 1954 IC50 rel IC50
Text: as §1

[3] = system: monoubiquitinated PCNA; assay: AlphaLISA assay measuring monoubiquitinated PCNA in MDA-MB-436; type: cell-based; conditions: Homo sapiens, read-out: Alpha LISA IC50
Text: Table 1 also indicates IC50 values for exemplary compounds in an AlphaLISA assay measuring monoubiquitinated PCNA in a BRCA1 mutant cell line (MDA-MB-436; column 7).

[4] = molecular target: USP1-UAF1 (Homo sapiens, UniProt O94782); assay: Ubiquitin Rhodamine assay for USP1-UAF1 activity; type: biochemical
Experimental: Certain compounds of the disclosure were assessed for USP1-UAF1 activity in a Ubiquitin Rhodamine assay as described in Example 135.

Sequence of USP1-UAF1 (O94782 whole entry): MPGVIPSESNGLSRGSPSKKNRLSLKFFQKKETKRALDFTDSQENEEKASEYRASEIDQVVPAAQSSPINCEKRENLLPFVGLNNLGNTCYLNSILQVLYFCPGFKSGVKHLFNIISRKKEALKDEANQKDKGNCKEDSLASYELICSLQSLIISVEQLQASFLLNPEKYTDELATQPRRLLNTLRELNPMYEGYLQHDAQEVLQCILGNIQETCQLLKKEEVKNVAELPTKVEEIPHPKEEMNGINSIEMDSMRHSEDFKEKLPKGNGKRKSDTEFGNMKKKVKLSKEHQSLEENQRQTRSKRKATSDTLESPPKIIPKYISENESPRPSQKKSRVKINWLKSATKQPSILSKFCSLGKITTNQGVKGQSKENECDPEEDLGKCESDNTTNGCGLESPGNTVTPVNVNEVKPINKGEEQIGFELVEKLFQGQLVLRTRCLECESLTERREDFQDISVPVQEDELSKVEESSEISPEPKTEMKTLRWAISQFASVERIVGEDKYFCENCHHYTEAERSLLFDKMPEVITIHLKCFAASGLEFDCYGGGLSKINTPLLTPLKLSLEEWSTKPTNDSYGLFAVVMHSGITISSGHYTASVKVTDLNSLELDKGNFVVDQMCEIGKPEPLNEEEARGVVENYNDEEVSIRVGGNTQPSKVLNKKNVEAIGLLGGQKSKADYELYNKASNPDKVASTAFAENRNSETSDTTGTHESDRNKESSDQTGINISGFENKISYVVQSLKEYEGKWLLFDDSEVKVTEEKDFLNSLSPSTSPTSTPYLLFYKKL
Sequence of USP1-UAF1 (Q8TAF3 whole entry partner): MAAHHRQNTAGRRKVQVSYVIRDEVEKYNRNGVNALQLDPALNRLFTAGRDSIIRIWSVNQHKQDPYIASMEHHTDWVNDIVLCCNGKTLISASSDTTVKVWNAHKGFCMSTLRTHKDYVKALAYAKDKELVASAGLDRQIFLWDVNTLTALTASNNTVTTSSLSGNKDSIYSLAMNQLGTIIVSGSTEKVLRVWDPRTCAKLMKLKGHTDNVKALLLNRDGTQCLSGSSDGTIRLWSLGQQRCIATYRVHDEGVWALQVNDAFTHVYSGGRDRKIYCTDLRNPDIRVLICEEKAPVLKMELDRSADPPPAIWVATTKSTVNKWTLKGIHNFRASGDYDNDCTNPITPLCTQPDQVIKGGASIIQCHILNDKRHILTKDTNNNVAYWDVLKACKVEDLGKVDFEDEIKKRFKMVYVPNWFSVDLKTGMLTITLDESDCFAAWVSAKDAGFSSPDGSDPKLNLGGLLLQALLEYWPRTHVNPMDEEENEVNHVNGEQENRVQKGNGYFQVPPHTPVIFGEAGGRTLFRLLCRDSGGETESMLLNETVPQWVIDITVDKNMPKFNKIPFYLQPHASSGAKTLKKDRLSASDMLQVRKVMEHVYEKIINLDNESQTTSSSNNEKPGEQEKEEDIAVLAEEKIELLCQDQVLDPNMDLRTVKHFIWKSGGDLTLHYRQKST

Structure (SMILES)	pIC50 ([1]; MDA-MB-436, viability)	pIC50 [2]	pIC50 [3]	pIC50 [4]	pIC50 ([1]; viability)
COc1ncnc(C2CC2)c1-c1ncc2c(n1)c(Cc1ccc(-c3nc(C(F)(F)F)cn3C)cc1)cn2C(C)C [Compound 91]	6.60 to 7.00	≤ 5.00	6.60 to 7.00	5.00 to 7.00	
CC(C)c1ccccc1-c1cc2c(CN3CCN(c4nc(C(F)(F)F)cn4C)CC3)c[nH]c2cn1 [Compound 71]	5.00 to 6.60	5.00 to 6.60	5.00 to 6.60	5.00 to 7.00	
COc1ncnc(OC)c1-c1ncc2[nH]cc(Cc3ccc(-c4nc(C(F)(F)F)cn4C(C)C)cc3)c2n1 [Compound 182]	6.60 to 7.00	≤ 5.00	> 7.00	7.00 to 7.52	
COc1cccc(OC)c1-c1ncc2[nH]cc(Cc3ccc(-c4nc(C(F)(F)F)cn4C)cc3)c2n1 [Compound 194]	6.60 to 7.00	≤ 5.00	5.00 to 6.60	7.00 to 7.52	
COc1ncnc(C2CC2)c1-c1ncc2[nH]cc(Oc3ccc(-c4nc(C(F)(F)F)cn4C)cc3)c2n1 [Compound 69, 2-(4-cyclopropyl-6-methoxy-pyrimidin-5-yl)-7-[4-[1-methyl-4-(trifluoromethyl)imidazol-2-yl]phenoxy]-5H-pyrrolo[3,2-d]pyrimidine]	5.00 to 6.60	≤ 5.00	5.00 to 6.60	5.00 to 7.00	
Cn1cc(C(F)(F)F)nc1-c1ccc(Cc2c[nH]c3cnc(-c4c(C5CC5)ccnc4C4CC4)nc23)cc1 [Compound 122]	6.60 to 7.00	≤ 5.00	5.00 to 6.60	> 7.52	
COc1ncnc(C2CC2)c1-c1ncc2[nH]nc(Cc3cc(F)c(-n4nc(C(F)(F)F)cc4C)c(F)c3)c2n1 [Compound 129]	6.60 to 7.00	5.00 to 6.60	6.60 to 7.00	> 7.52	
COc1ncnc(C#N)c1-c1ncc2[nH]cc(Cc3ccc(-c4nc(C(F)(F)F)cn4C)cc3)c2n1 [Compound 134]	6.60 to 7.00	≤ 5.00	5.00 to 6.60	7.00 to 7.52	
COc1ncnc(C(C)C)c1-c1ncc2[nH]cc(Cc3ccc(-c4nc(C(F)(F)F)cn4C)cc3)c2n1 [Compound 105, 2-(4-isopropyl-6-methoxy-pyrimidin-5-yl)-7-[[4-[1-methyl-4-(trifluoromethyl)imidazol-2-yl]phenyl]methyl]-5H-pyrrolo[3,2-d]pyrimidine]	> 7.00	≤ 5.00	> 7.00	> 7.52	
COc1ncnc(C2CC2)c1-c1ncc2nn(C(C)=O)c(Cc3ccc(-c4nc(C(F)(F)F)cn4C)cc3)c2n1 [Compound 101, 1-(5-(4-cyclopropyl-6-methoxypyrimidin-5-yl)-3-(4-(1-methyl-4-(trifluoromethyl)-1H-imidazol-2-yl)benzyl)-2H-pyrazolo[4,3-d]pyrimidin-2-yl)ethan-1-one]		≤ 5.00	> 7.00	7.00 to 7.52	> 7.00
COc1ncnc(C(C)(C)C)c1-c1ncc2c(n1)c(Cc1ccc(-c3nc(C(F)(F)F)cn3C)cc1)nn2C [Compound 96]	6.60 to 7.00	≤ 5.00	6.60 to 7.00	7.00 to 7.52	
Cn1cc(C(F)(F)F)nc1-c1ccc(Cc2c[nH]c3cnc(-c4cccnc4C4CC4)cc23)cc1 [Compound 66, 2-cyclopropyl-3-[3-([4-[1-methyl-4-(trifluoromethyl)imidazol-2-yl]phenyl]methyl)-1H-pyrrolo[2,3-c]pyridin-5-yl]pyridine]	6.60 to 7.00	5.00 to 6.60	> 7.00	7.00 to 7.52	

The next lines start with results.

pIC50 ([1]; MDA-MB-436, viability)	pIC50 [2]	pIC50 [3]	pIC50 [4]	Structure (SMILES)	pIC50 ([1]; viability)
> 7.00	≤ 5.00	> 7.00	> 7.52	[2H]C([2H])([2H])n1nc(Cc2ccc(-c3nc(C(F)(F)F)cn3C)cc2)c2nc(-c3c(OC)ncnc3C3CC3)ncc21 [Compound 143, 5-(4-cyclopropyl-6-methoxy-pyrimidin-5-yl)-3-[[4-[1-methyl-4-(trifluoromethyl)imidazol-2-yl]phenyl]methyl]-1-(trideuteriomethyl)pyrazolo[4,3-d]pyrimidine]	
> 7.00	≤ 5.00	> 7.00	7.00 to 7.52	Cn1cc(C(F)(F)F)nc1-c1ccc(C(O)c2c[nH]c3cnc(-c4c(OC(F)F)ncnc4C4CC4)nc23)cc1 (single isomer, unassigned) [Compound 103]	
> 7.00	≤ 5.00	> 7.00	> 7.52	COCc1[nH]c2cnc(-c3c(OC)ncnc3C3CC3)nc2c1Cc1ccc(-c2nc(C(F)(F)F)cn2C)cc1 [Compound 94, 2-(4-cyclopropyl-6-methoxy-pyrimidin-5-yl)-6-(methoxymethyl)-7-[[4-[1-methyl-4-(trifluoromethyl)imidazol-2-yl]phenyl]methyl]-5H-pyrrolo[3,2-d]pyrimidine]	
> 7.00	≤ 5.00	> 7.00	7.00 to 7.52	COc1ncnc(C2CC2)c1-c1ncc2c(n1)c(Cc1ccc(-n3nc(C#N)cc3C)cc1)cn2C [Compound 107, 1-[4-[[2-(4-cyclopropyl-6-methoxy-pyrimidin-5-yl)-5-methyl-pyrrolo[3,2-d]pyrimidin-7-yl]methyl]phenyl]-5-methyl-pyrazole-3-carbonitrile]	
> 7.00	≤ 5.00	> 7.00	> 7.52	COc1ncnc(C2CC2)c1-c1cc2c(Cc3ccc(-c4nc(C(F)(F)F)cn4C)cc3)n[nH]c2cn1 [Compound 177, 5-(4-cyclopropyl-6-methoxypyrimidin-5-yl)-3-(4-(1-methyl-4-(trifluoromethyl)-1H-imidazol-2-yl)benzyl)-1H-pyrazolo[3,4-c]pyridine]	
> 7.00	≤ 5.00	6.60 to 7.00	> 7.52	COc1ncnc(C2CC2)c1-c1ncc2c(n1)c(Cc1ccc(-c3nc(C(F)(F)F)cn3C)cc1)cn2S(C)(=O)=O [Compound 146, 2-(4-cyclopropyl-6-methoxy-pyrimidin-5-yl)-5-methylsulfonyl-7-[[4-[1-methyl-4-(trifluoromethyl)imidazol-2-yl]phenyl]methyl]pyrrolo[3,2-d]pyrimidine]	
> 7.00	≤ 5.00	> 7.00	> 7.52	CC(C)c1ccccc1-c1ncc2[nH]nc(Cc3ccc(-c4nc(C(F)(F)F)cn4C)cc3)c2n1 [Compound 27, 5-(2-isopropylphenyl)-3-[[4-[1-methyl-4-(trifluoromethyl)imidazol-2-yl]phenyl]methyl]-1H-pyrazolo[4,3-d]pyrimidine]	
> 7.00	5.00 to 6.60	> 7.00	> 7.52	COc1ncnc(C2CC2)c1-c1ncc2[nH]cc(C(C)c3ccc(-c4nc(C(F)(F)F)cn4C)cc3)c2n1 (single isomer, unassigned) [Compound 89]	
> 7.00	5.00 to 6.60	> 7.00	> 7.52	COc1ncnc(C2CC2)c1-c1ncc2[nH]nc(Cc3ccc(-c4nc(C(F)(F)F)cn4C4CC4)cc3)c2n1 [Compound 206]	
> 7.00	≤ 5.00	> 7.00	> 7.52	Cn1cc(C(F)(F)F)nc1-c1ccc(Cc2c[nH]c3cnc(-c4cccnc4C4CC4)nc23)cc1 [Compound 60, 2-(2-cyclopropyl-3-pyridyl)-7-[[4-[1-methyl-4-(trifluoromethyl)imidazol-2-yl]phenyl]methyl]-5H-pyrrolo[3,2-d]pyrimidine]	
